Active and inactive are the calls of the source. No cut-off for these calls is given here.
Legend:
SH-SY5Y [1] = experiment: Cytotoxicity against human SH-SY5Y cells at 10 uM after 4 days by DAPI staining method; assay type: functional
SH-SY5Y [2] = experiment: Cytotoxicity against human SH-SY5Y cells at 50 uM after 4 days by DAPI staining method; assay type: functional
SH-SY5Y [3] = experiment: Cytotoxicity against human SH-SY5Y cells after 4 days by DAPI staining method; assay type: functional, cell-based
[4] = Cytotoxicity against human PA-TU-8902 cells at 50 uM after 4 days by DAPI staining method relative to control; assay type: functional
SH-SY5Y [5] = experiment: Induction of apoptosis in human SH-SY5Y cells assessed as DNA fragmentation at 50 uM after 4 days by Hoechst 33342 method; assay type: functional, cell-based

Question: Which results are given for `O=C(O)[C@H]1O[C@@H](O[C@H]2[C@H](Oc3cc(O)c4c(=O)cc(-c5ccc(O)c(O)c5)oc4c3)O[C@H](CO)[C@@H](O)[C@@H]2O)[C@H](O)[C@@H](O)[C@@H]1O`?
Answer: Activity (SH-SY5Y [1]): 75%; Activity (SH-SY5Y [2]): 75%; Activity (SH-SY5Y [3]): Dose-dependent effect; Activity [4]: 20%; Activity (SH-SY5Y [5]): Active

Source: ChEMBL document CHEMBL1152340, “Flavonoid glucuronides and a chromone from the aquatic macrophyte Stratiotes aloides” (2009)
